Measurements: the supplement of paper PMC8671470

What was measured:
Details in all cases: 72 h
[1] = test system: myeloid leukemia patient primary cells Pat.1; experiment: cell viability (% survival relative to DMSO control); higher = less cytotoxic
Summary of the method: (§1)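 Thawed mononuclear cells from AML or CML patients were purified on Ficoll and cultured for 72 h in RPMI 1640 with 10% FBS, at 10,000 cells/well, on 384-well plates carrying 70 pre-printed compounds at 1–10,000 nM in five tenfold steps, in duplicate. Viability came from CellTiter-Glo, normalised against DMSO and against 10 μM proteasome inhibitor. Any area under the curve given was derived from log-logistic curve fits in the drc and PharmacoGx R packages, and these fits had four parameters.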

[2] = test system: myeloid leukemia patient primary cells Pat.8; experiment: as above
Summary of the method: as §1

[3] = test system: myeloid leukemia patient primary cells Pat.4; experiment: as above
Summary of the method: as §1

[4] = test system: myeloid leukemia patient primary cells Pat.2; experiment: as above
Summary of the method: as §1

[5] = test system: myeloid leukemia patient primary cells Pat.6; experiment: as above
Summary of the method: as §1

[6] = test system: myeloid leukemia patient primary cells Pat.10; experiment: as above
Summary of the method: as §1

[7] = test system: myeloid leukemia patient primary cells Pat.13; experiment: as above
Summary of the method: as §1

[8] = test system: myeloid leukemia patient primary cells Pat.3; experiment: as above
Summary of the method: as §1

[9] = test system: myeloid leukemia patient primary cells Pat.11; experiment: as above
Summary of the method: as §1

[10] = test system: myeloid leukemia patient primary cells Pat.15; experiment: as above
Summary of the method: as §1

[11] = test system: myeloid leukemia patient primary cells Pat.12; experiment: as above
Summary of the method: as §1

[12] = test system: myeloid leukemia patient primary cells Pat.14; experiment: as above
Summary of the method: as §1

[13] = test system: myeloid leukemia patient primary cells Pat.5; experiment: as above
Summary of the method: as §1

[14] = test system: myeloid leukemia patient primary cells Pat.7; experiment: as above
Summary of the method: as §1

[15] = test system: myeloid leukemia patient primary cells Pat.9; experiment: as above
Summary of the method: as §1

[16] = test system: myeloid leukemia patient primary cells Pat.4; experiment: area under dose-response curve (viability, 1 nM-10 uM) (fraction (0-1)); higher = more sensitive
Protocol: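 AUC (0–1, higher = more sensitive) of the 5-point dose–response (1 nM–10 µM, 72 h, CellTiter-Glo) in primary AML/CML patient mononuclear cells. 0.030103 is the floor for inactive compounds.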

HL-60 = test system: HL-60
Summary of the method: (§2)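 The IC50 was read from log-logistic dose–response fits. Fifteen myeloid leukaemia lines were exposed for 72 h at 37 °C with 5% CO2 to five tenfold doses from 1 to 10,000 nM in duplicate. ATP luminescence, normalised to vehicle and to a 10 µM positive control, was fitted with four parameters.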

ML-2 = test system: ML-2
Summary of the method: as §2

THP-1 = test system: THP-1
Summary of the method: as §2

SHI-1 = test system: SHI-1
Summary of the method: as §2

BV-173 = test system: BV-173
Summary of the method: as §2

KCL-22 = test system: KCL-22
Summary of the method: as §2

LAMA-84 = test system: LAMA-84
Summary of the method: as §2

HEL = test system: HEL
Summary of the method: as §2

KG-1 = test system: KG-1
Summary of the method: as §2

KU-812 = test system: KU-812
Summary of the method: as §2

Mono-Mac-6 = test system: Mono-Mac-6
Summary of the method: as §2

K-562 = test system: K-562
Summary of the method: as §2

NOMO-1 = test system: NOMO-1
Summary of the method: as §2

MOLM-13 = test system: MOLM-13
Summary of the method: as §2

C=C(C=NNC(=N)N)NNC(=N)N [Mitoguazone]
cell viability [%]
Details | 1 nM | 10 nM | 100 nM | 1000 nM | 10000 nM
[1] | 86.1 | 72.5 | 93.5 | 94.2 | 69
[2] | 94.1 | 69 | 50 | 99.8 | 94.2
[3] | 92.5 | 82.3 | 48.1 | 92.3 | 44.2
[4] | 96.2 | 79.2 | 49.2 | 50 | 67.7
[5] | > 100 | 82 | 44.5 | 1.04 | 50.8
[6] | 78.7 | 59.4 | 13.6 | 28.1 | 89.2
[7] | 88.3 | 78.5 | 91.2 | 50.8 | > 100
[8] | 97.3 | 82.2 | 51.4 | 4.18 | 53
[9] | 98.8 | 92.1 | > 100 | 98.6 | 84.1
[10] | 89.7 | 82.8 | 91.4 | 69.4 | 19.6
[11] | > 100 | 90 | 99.3 | 96.9 | 99.4
[12] | 91.4 | 54.7 | 4.62 | 2.41 | 80.8
[13] | > 100 | 0.912 | 0.265 | 1.33 | 78.9
[14] | 65.3 | 85.7 | < 0 | < 0 | 54.5
[15] | 75.2 | 50.8 | 1.24 | 1.6 | 57.2

Details | IC50 (cell viability) [nM] | area under dose-response curve
BV-173 | 1440 | –
HEL | 9120 | –
HL-60 | 7010 | –
K-562 | 1320 | –
KCL-22 | 4400 | –
KG-1 | 3310 | –
KU-812 | 4550 | –
LAMA-84 | 2290 | –
ML-2 | 916 | –
MOLM-13 | 944 | –
Mono-Mac-6 | 1240 | –
NOMO-1 | 1590 | –
SHI-1 | 1100 | –
THP-1 | 3080 | –
[16] | – | 0.0342

Nc1nc(Cl)nc2c1ncn2[C@H]1C[C@H](O)[C@@H](CO)O1 [Cladribine]
cell viability [%]
Details | 1 nM | 10 nM | 100 nM | 1000 nM | 10000 nM
[1] | 95.2 | 98.3 | > 100 | 90.3 | 94.1
[2] | 88.1 | 77.7 | 12.6 | 3.65 | 3.19
[3] | 99 | 55.6 | 13.5 | 4.74 | 6.11
[4] | > 100 | 89.8 | 53.5 | 15.5 | 10.1
[5] | 95.1 | 74.3 | 19.2 | 6.84 | 6.92
[6] | 95 | 33.1 | 0.135 | 2.16 | 6.29
[7] | 96.2 | 54.6 | 12.5 | 4.44 | 4.27
[8] | 92.1 | 69.8 | 7.92 | 6.26 | 6.06
[9] | > 100 | 96.6 | 76.6 | 59.8 | 63.8
[10] | 95.4 | 82.7 | 88.4 | 60.2 | 13.9
[11] | 94.5 | 83.1 | 54.4 | 20.5 | 7.86
[12] | 90.7 | 75.3 | 17.3 | 3.16 | 0.937
[13] | 50.7 | 35.2 | 9.01 | 0.265 | 1.33
[14] | 97.6 | 82.8 | 17.1 | < 0 | < 0
[15] | 84.9 | 34 | < 0 | 1.24 | 4.28

Details | IC50 (cell viability) [nM] | area under dose-response curve
BV-173 | 4.38 | –
HEL | 33.5 | –
HL-60 | 47.1 | –
K-562 | 219 | –
KCL-22 | 142 | –
KG-1 | 384 | –
KU-812 | 98.9 | –
LAMA-84 | 99.2 | –
ML-2 | 238 | –
MOLM-13 | 25.3 | –
Mono-Mac-6 | 21.2 | –
NOMO-1 | 52.9 | –
SHI-1 | 43.9 | –
THP-1 | 358 | –
[16] | – | 0.689

C[C@H](NC(=O)c1sccc1OCc1ccc(Cl)cc1)c1ccccc1
cell viability [%]
Details | 1 nM | 10 nM | 100 nM | 1000 nM | 10000 nM
[1] | 94.5 | 95.9 | 91 | > 100 | 54
[2] | 72.9 | 85.9 | 87.7 | > 100 | 61
[3] | 94.6 | 93.6 | 94.1 | 83.3 | 39.9
[4] | > 100 | 95.8 | > 100 | 97.8 | 64
[5] | > 100 | 98.1 | 99.6 | 91.5 | 35.7
[6] | 81.9 | 67.4 | 73.5 | 80.2 | < 0
[7] | 92.9 | 89 | 92.3 | 91.7 | 43.4
[8] | 91.3 | 83.9 | 96.3 | 96.2 | 1.02
[9] | 93 | > 100 | > 100 | 97.6 | > 100
[10] | 92.7 | 95.6 | 97.7 | 92.2 | 81.3
[11] | 90 | 98.4 | 91.8 | > 100 | 63.8
[12] | 88.5 | 88 | 99.3 | 99.3 | 1.72
[13] | 88.1 | 68.7 | 71.7 | 19.4 | 4.74
[14] | 93.1 | 85.3 | 90.3 | 40.2 | < 0
[15] | 84.8 | 59.2 | 79 | 59.2 | 1.24

Details | IC50 (cell viability) [nM] | area under dose-response curve
BV-173 | > 10000 | –
HEL | > 10000 | –
HL-60 | 751 | –
K-562 | > 10000 | –
KCL-22 | > 10000 | –
KG-1 | > 10000 | –
KU-812 | > 10000 | –
LAMA-84 | > 10000 | –
ML-2 | > 10000 | –
MOLM-13 | > 10000 | –
Mono-Mac-6 | > 10000 | –
NOMO-1 | > 10000 | –
SHI-1 | > 10000 | –
THP-1 | > 10000 | –
[16] | – | 0.0955
